Measurements published in the supplement of paper PMC10307832.

Legend:
Experiment in all cases: relative viability (nuclei count vs DMSO), 5 days (fraction); higher = more cells survive
[1] = compound: Cn1nnc2c(C(N)=O)ncn2c1=O [Temozolomide] + CC1(C)CCC(c2ccc(Cl)cc2)=C(CN2CCN(c3ccc(C(=O)NS(=O)(=O)c4ccc(N[C@H](CCN5CCOCC5)CSc5ccccc5)c(S(=O)(=O)C(F)(F)F)c4)cc3)CC2)C1 [Navitoclax] (partner 0.5 µM)
Procedure, shortened: (§1)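 Relative viability is defined as nuclei in treated wells over nuclei in vehicle wells. Duplicate plates were run and medians reported. Lung cancer cell lines in 1536-well plates were dosed by pin tool one day after seeding, with one drug or with a fixed anchor-drug dose plus five library-drug doses (not always all listed) in √10 steps, and nuclei were counted after 5 days.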

Temozolomide + Lapatinib = compound: Cn1nnc2c(C(N)=O)ncn2c1=O [Temozolomide] + CS(=O)(=O)CCNCc1ccc(-c2ccc3ncnc(Nc4ccc(OCc5cccc(F)c5)c(Cl)c4)c3c2)o1 [Lapatinib] (partner 2 µM)
Procedure, shortened: as §1

[2] = compound: Cn1nnc2c(C(N)=O)ncn2c1=O [Temozolomide] + CS(=O)(=O)N1CCN(Cc2cc3nc(-c4cccc5[nH]ncc45)nc(N4CCOCC4)c3s2)CC1 [Pictilisib] (partner 1 µM)
Procedure, shortened: as §1

[3] = compound: Cn1nnc2c(C(N)=O)ncn2c1=O [Temozolomide] + C[C@]1(O)C[C@@H](c2nc(-c3ccc4ccc(-c5ccccc5)nc4c3)c3c(N)nccn32)C1 [Linsitinib] (partner 1 µM)
Procedure, shortened: as §1

**Q.** How did the relative viability ([1]; first compound 0.2 µM) turn out when NCI-H1703 was run?
**A.** The relative viability was 1.21.

**Q.** And the relative viability ([1]; first compound 0.6325 µM)?
**A.** Its relative viability is 1.2.

**Q.** And the relative viability ([1]; first compound 2 µM)?
**A.** Its relative viability is 1.28.

**Q.** What about the relative viability ([1]; first compound 6.325 µM) of the same cell line?
**A.** The relative viability was 0.947.

**Q.** What about the relative viability ([1]; first compound 20 µM) of the same cell line?
**A.** Its relative viability is 1.37.

**Q.** What about the relative viability (Temozolomide + Lapatinib; first compound 0.2 µM) of the same cell line?
**A.** The relative viability was 1.39.

**Q.** What about the relative viability (Temozolomide + Lapatinib; first compound 0.6325 µM) of the same cell line?
**A.** Its relative viability is 1.08.

**Q.** And the relative viability (Temozolomide + Lapatinib; first compound 2 µM)?
**A.** The relative viability was 1.59.

**Q.** And the relative viability (Temozolomide + Lapatinib; first compound 6.325 µM)?
**A.** Its relative viability is 0.972.

**Q.** What about the relative viability (Temozolomide + Lapatinib; first compound 20 µM) of the same cell line?
**A.** Its relative viability is 1.21.

**Q.** And the relative viability ([2]; first compound 0.2 µM)?
**A.** The relative viability was 0.249.

**Q.** And the relative viability ([2]; first compound 0.6325 µM)?
**A.** The relative viability was 0.255.

**Q.** And the relative viability ([2]; first compound 2 µM)?
**A.** The relative viability was 0.301.

**Q.** And the relative viability ([2]; first compound 20 µM)?
**A.** Its relative viability is 0.272.

**Q.** And the relative viability ([3]; first compound 0.2 µM)?
**A.** Its relative viability is 0.863.

**Q.** And the relative viability ([3]; first compound 0.6325 µM)?
**A.** The relative viability was 0.609.

**Q.** And the relative viability ([3]; first compound 2 µM)?
**A.** The relative viability was 1.32.

**Q.** And the relative viability ([3]; first compound 6.325 µM)?
**A.** Its relative viability is 0.841.

**Q.** And the relative viability ([3]; first compound 20 µM)?
**A.** Its relative viability is 0.95.
